Entries after “also recorded” stand apart in the source; their conditions may differ.
How the values were obtained:
[1] = tested on: HA; assay: Adhesion of 35S-labeled BW5147 thymoma cells to HA-coated plates; type: cell-based; conditions: 500 μg/ml pretreatment
Protocol: FIGS. 1A-B. (FIG. 1A) ^35S-labeled BW5147 thymoma cells were incubated on HA-coated plates (0.1 μg/ml) that had been pretreated with the indicated peptides (500 μg/ml). Data shown are the means+/−S.D. of % binding from quadruplicate samples. (FIG. 1B) FITC-conjugated HA (0.3 μg/ml) was preincubation with the indicated peptide (500 μg/ml) and examined for binding to BW5147 thymoma cells. Data shown are the binding of FITC-conjugated HA in the presence of the indicated peptides (closed histograms) as compared to the background autofluorescence levels (open histograms).
FIGS. 5A-C. Impact of Pep-1 on HA degradation products. […] After extensive wash, the amounts of remaining biotinylated HA on the plates were determined by addition of streptavidin-alkaline phosphatase followed by p-nitrophenyl phosphate substrate. The % HA digestion was calculated from the optical densities. The data shown are the means+/−s.e.m.from triplicate samples analyzed with a hyperbolic model. […] Results are expressed as the means+/−s.e.m.from triplicate samples.
To test the impact of Pep-1 on HA degradation, the present inventors developed a 96 well-based assay in which biotinylated HA was immobilized onto the plates and treated with HAase. The amounts of HA that remained attached to the wells was then determined by addition of streptavidin-conjugated alkaline phosphatase (FIG. 5A).

[2] = tested on: DO11.10 T cells; assay: DO11.10 T cell proliferation triggered by splenic DC and OVA peptide (3H-thymidine uptake); type: cell-based, mice
Protocol: FIGS. 7A-C. Impact of tetrameric LIP on cytokine production during antigen presentation. (FIG. 7A) XS52 DC (0.2×10^6 cells/well) were cultured in the presence or absence of the KLH-reactive CD4^+ Thl clone HDK-1 (0.2×10^6 cells/well) and/or KLH (100 μg/ml). Culture supernatants collected at 24 hrs were examined for the indicated cytokines by ELISA. Data shown are the means+/−s.e.m. from triplicate samples. (FIG. 7B) XS52 DC and HDK-1 T cells were co-cultured with KLH in the presence of the indicated concentrations of Pep-1. Culture supernatants collected at 24 hrs were examined for the indicated cytokines by ELISA. (FIG. 7C) CD4^+ T cells isolated from DO11.10 transgenic mice (5×10^4 cells/well) were co-cultured with the indicated numbers of splenic DC isolated from BALB/c mice and the OVA peptide (2 μg/ml) in the presence of 500 μg/ml of Pep-1 (open circles), RP (triangles), or DMSO alone (closed circles). Co-cultures of CD4^+ T cells and DC in the absence of OVA peptide served as a control (square). All the cultures were examined for ^3H-thymidine uptake on Day 3. […]
FIGS. 9A-G. DC-associated HA and DC-dependent T cell proliferation. […] Statistically significant differences assessed by a two-tailed Student's t-test for comparing two groups or by analysis of variance (ANOVA) followed by LSD for multiple comparisons are indicated by asterisks (*P<0.05, **P<0.01). […]

GAHWQFNALTVR [Pep-1]
inhibition of BW5147 cell adhesion to HA substrate [1]: blocked BW5147 cell adhesion; also recorded: significant (p<0.01 by ANOVA) inhibition of cell adhesion | inhibition of DC-dependent, antigen-specific T cell proliferation ([2]; 300 μM (FIG. 9B)): inhibited | inhibition of activation of naive CD4+ T cells by splenic DC ([2]; 500 μg/ml (FIG. 7C)): inhibited the activation of immunologically naive CD4+ T cells
